Patent US9409952B2, “Peptide-compound cyclization method” (Chugai Seiyaku Kabushiki Kaisha, priority 2011, dated 2016)
Like-named read-outs stand apart in the source and are kept apart here. Starred links: 1 amine or outer side, 2 acyl side, 3 side chain; linkers in the order of their positions; H or OH if unused. Positions of bridges follow the written chain, without caps; N, C: chain ends. Non-standard residues stand in square brackets, D forms with d. Residues, ends and D or L forms follow the SMILES beside them. *: point of attachment. Phe(4-(CH2)5CO) = O=C([C@H](Cc1ccc(CCCCCC(=O)[*:3])cc1)N[*:1])[*:2]; Phe(3-(CH2)4CO) = O=C([C@H](Cc1cccc(CCCCC(=O)[*:3])c1)N[*:1])[*:2]; Phe(4-CF3) = N[C@@H](Cc1ccc(C(F)(F)F)cc1)C(=O)O; NMeF = CN[C@@H](Cc1ccccc1)C(=O)O; NMeGABA = CN(CCCC(=O)[*:2])[*:1]; NMeI = CC[C@H](C)[C@H](NC)C(=O)O; NMeβAla = CN(CCC(=O)[*:2])[*:1]; NMeL = CN[C@@H](CC(C)C)C(=O)O; NMeV = CN[C@H](C(=O)O)C(C)C; NMeA = CN[C@@H](C)C(=O)O; Piperidide = C1CCN(*)CC1; dNMeA = CN[C@H](C)C(=O)O; β3hA = C[C@H](N)CC(=O)O; Sar = CNCC(=O)O; tBu = CC(C)(C)*

What was measured:
[1] = Metabolic stability in human hepatic microsome; assay type: in vitro ADME; details: microsomes
[2] = PAMPA (parallel artificial membrane permeability assay); assay type: in vitro ADME; details: PAMPA
In short: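 Artificial membrane was 10% (w/v) egg lecithin plus 0.5% (w/v) cholesterol in dodecane on a PVDF filter. A 10 mM DMSO stock was added at 0.5% (v/v) to donor buffer (50 mM MOPSO, pH 6.5, 5.0% glycocholic acid). After 18 h at 37 °C, LC/MS or LC/UV gave donor and acceptor levels for Pe.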

[3] = pH 7.4, human hepatic microsome, NADPH(+), read-out: CL NADPH(+)
[4] = membrane permeation rate (Pe), 50 mM MOPSO buffer pH 6.5 with 5.0% glycocholic acid, 37° C., 18 hours, read-out: iPAMPA Pe

SMILES | microsomal CLint at 1 uM [1, 3] [µL/min/mg] | Papp at 18 hours, 50 µM [2, 4] [×10⁻⁶ cm/s] | microsomal CLint at 1 uM ([1]; human, pH 7.4, CL NADPH(+)) [µL/min/mg] | Papp at 18 hours, 50 µM ([2]; pH 6.5) [×10⁻⁶ cm/s]
CC[C@H](C)[C@H]1C(=O)N(C)[C@@H](CC(C)C)C(=O)N(C)[C@@H](Cc2ccccc2)C(=O)N[C@@H](CC(C)C)C(=O)N(C)[C@@H](C(C)C)C(=O)N[C@@H](Cc2ccccc2)C(=O)N[C@@H]([C@@H](C)O)C(=O)N[C@H](C(=O)N2CCCCC2)Cc2ccc(cc2)CCCCCC(=O)N[C@@H](C)C(=O)N1C [DP-847] (A[NMeI][NMeL][NMeF]L[NMeV]FT[Phe(4-(CH2)5CO)]-Piperidide; lactam N-9) | 329 | 3.3 |  | 
CC(C)C[C@@H]1NC(=O)[C@H](CC(C)C)N(C)C(=O)[C@H](C)N(C)C(=O)C[C@@H](C(=O)N(C)[C@@H](Cc2ccccc2)C(=O)N[C@@H](C)C(=O)N2CCCCC2)NC(=O)[C@H](CC(C)C)N(C)C(=O)[C@H](Cc2ccccc2)NC(=O)[C@H](Cc2ccccc2)N(C)C(=O)[C@H](C)NC(=O)[C@H]([C@@H](C)O)NC(=O)[C@H](CC(C)C)N(C)C1=O [DP-350] ([NMeA][NMeL]L[NMeL]TA[NMeF]F[NMeL]D[NMeF]A-Piperidide; lactam N-10) | 29 | 2 |  | 
CC(C)C[C@@H]1NC(=O)[C@H]([C@@H](C)O)NC(=O)[C@H](CC(C)C)NC(=O)[C@H](CC(C)C)N(C)C(=O)[C@H](Cc2ccccc2)NC(=O)[C@H](Cc2ccccc2)NC(=O)[C@H](C)N(C)C(=O)C[C@@H](C(=O)N2CCCCC2)NC(=O)[C@H](Cc2ccccc2)N(C)C(=O)CNC1=O [DP-116] ([NMeA]FF[NMeL]LTLG[NMeF]D-Piperidide; lactam N-10) | 333 | 23 |  | 
CC[C@H](C)[C@H]1C(=O)N[C@@H](Cc2ccccc2)C(=O)N(C)[C@@H](Cc2ccccc2)C(=O)N[C@@H]([C@@H](C)O)C(=O)N2CCC[C@H]2C(=O)N[C@@H](CC(C)C)C(=O)N[C@H](C(=O)N2CCCCC2)Cc2cccc(c2)CCCCC(=O)NCC(=O)N(C)[C@@H](C(C)C)C(=O)N(C)[C@@H](CC(C)C)C(=O)N[C@@H](C)C(=O)N1C [DP-885] (G[NMeV][NMeL]A[NMeI]F[NMeF]TPL[Phe(3-(CH2)4CO)]-Piperidide; lactam N-11) | 75 | 30 |  | 
CC[C@H](C)[C@@H]1NC(=O)[C@H](CC(C)C)N(C)C(=O)[C@H](CC(C)C)N(C)C(=O)[C@H](C)NC(=O)CCCN(C)C(=O)C[C@@H](C(=O)N2CCCCC2)NC(=O)[C@H](CC(C)C)N(C)C(=O)[C@H](Cc2ccccc2)N(C)C(=O)CN(C)C(=O)[C@H]([C@@H](C)O)NC(=O)[C@H](Cc2ccccc2)N(C)C1=O [DP-275] ([NMeGABA]A[NMeL][NMeL]I[NMeF]T[Sar][NMeF][NMeL]D-Piperidide; lactam N-11) |  |  | 440 | 36
CC[C@H](C)[C@@H]1NC(=O)[C@H](Cc2ccccc2)N(C)C(=O)[C@H](Cc2ccccc2)NC(=O)[C@H](CC(C)C)N(C)C(=O)[C@H](C(C)C)NC(=O)[C@H](CC(C)C)NC(=O)CCCCc2cccc(c2)C[C@@H](C(=O)N2CCCCC2)NC(=O)[C@H]([C@@H](C)O)NC(=O)[C@H](CC(C)C)NC(=O)[C@H](C)N(C)C1=O [DP-894] (LV[NMeL]F[NMeF]I[NMeA]LT[Phe(3-(CH2)4CO)]-Piperidide; lactam N-10) | 71 | 0.46 |  | 
CC(C)C[C@@H]1NC(=O)[C@H]([C@@H](C)O)NC(=O)[C@H](CC(C)C)N(C)C(=O)[C@H](Cc2ccccc2)N(C)C(=O)[C@H](C)N(C)C(=O)C[C@@H](C(=O)N2CCCCC2)NC(=O)[C@H](COC(C)(C)C)NC(=O)[C@H](CC(C)C)N(C)C1=O [DP-696] ([NMeA][NMeF][NMeL]TL[NMeL]S(tBu)D-Piperidide; lactam N-8) | 194 | 37 |  | 
CC[C@H](C)[C@@H]1NC(=O)[C@H](CC(C)C)N(C)C(=O)[C@H](Cc2ccccc2)N(C)C(=O)[C@H](CC(C)C)NC(=O)[C@@H](C)NC(=O)C[C@@H](C(=O)N2CCCCC2)NC(=O)[C@H](C)N(C)C(=O)[C@H](C)N(C)C(=O)CN(C)C(=O)[C@H]([C@@H](C)O)NC(=O)[C@H](Cc2ccccc2)N(C)C(=O)[C@H](C(C)C)N(C)C1=O [DP-131] ([dA]L[NMeF][NMeL]I[NMeV][NMeF]T[Sar][NMeA][NMeA]D-Piperidide; lactam N-12) | 48 | 61 |  | 
C=C1CCC(=O)N[C@@H](CC(C)C)C(=O)N(C)[C@@H](CC(C)C)C(=O)N(C)[C@@H]([C@@H](C)CC)C(=O)N[C@@H](C)C(=O)N(C)[C@@H](Cc2ccccc2)C(=O)N[C@@H]([C@@H](C)O)C(=O)N(C)CC(=O)N(C)[C@@H](Cc2ccccc2)C(=O)N(C)[C@@H](CC(C)C)C(=O)N[C@H](C(=O)N2CCCCC2)Cc2ccc1cc2 [DP-864] | 171 | 2.3 |  | 
CC[C@H](C)[C@H]1C(=O)N(C)[C@@H](CC(C)C)C(=O)N[C@H](C(=O)N2CCCCC2)CC(=O)N(C)CC(=O)N[C@@H](CC(C)C)C(=O)N[C@@H]([C@@H](C)O)C(=O)N(C)CC(=O)N(C)[C@@H](Cc2ccccc2)C(=O)N[C@@H](C)C(=O)N(C)[C@@H](Cc2ccccc2)C(=O)N(C)[C@@H](CC(C)C)C(=O)N1C [DP-246] ([Sar]LT[Sar][NMeF]A[NMeF][NMeL][NMeI][NMeL]D-Piperidide; lactam N-11) | 42 | 41 |  | 
CC(C)C[C@H]1C(=O)N(C)[C@@H](C)C(=O)N(C)[C@@H](Cc2ccccc2)C(=O)N[C@@H]([C@@H](C)O)C(=O)N(C)CC(=O)N(C)[C@@H](Cc2ccccc2)C(=O)N(C)[C@@H](CC(C)C)C(=O)N[C@@H](C)C(=O)N[C@H](C(=O)N2CCCCC2)CC(=O)N(C)[C@@H](C)C(=O)N(C)[C@@H](C)C(=O)N1C [DP-482] ([NMeA][NMeA][NMeL][NMeA][NMeF]T[Sar][NMeF][NMeL]AD-Piperidide; lactam N-11) | 11 | 3.7 |  | 
CC(C)C[C@@H]1NC(=O)[C@H](C(C)C)NC(=O)C[C@@H](C(=O)N2CCCCC2)NC(=O)[C@H]([C@@H](C)O)NC(=O)CN(C)C(=O)[C@H](CC(C)C)N(C)C(=O)[C@H](CC(C)C)N(C)C1=O [DP-727] (VL[NMeL][NMeL][Sar]TD-Piperidide; lactam N-7) | 59 | 16 |  | 
CC(C)C[C@@H]1NC(=O)[C@H](C(C)C)N(C)C(=O)[C@H](C)N(C)C(=O)[C@H](Cc2ccccc2)N(C)C(=O)[C@H](Cc2ccccc2)NC(=O)[C@@H](C)N(C)C(=O)C[C@@H](C(=O)N2CCCCC2)NC(=O)[C@H]([C@@H](C)O)NC(=O)[C@H](C)N(C)C(=O)[C@H](C)N(C)C(=O)[C@H](C)NC(=O)CN(C)C1=O [DP-467] ([dNMeA]F[NMeF][NMeA][NMeV]L[Sar]A[NMeA][NMeA]TD-Piperidide; lactam N-12) | 12 | 1.5 |  | 
CC[C@H](C)[C@@H]1NC(=O)[C@H](CC(C)C)N(C)C(=O)CCN(C)C(=O)C[C@@H](C(=O)N(C)[C@@H](Cc2ccccc2)C(=O)N(C)[C@@H](Cc2ccccc2)C(=O)N[C@@H](C)C(=O)N2CCCCC2)NC(=O)[C@H](C(C)C)N(C)C(=O)[C@H](CC(C)C)N(C)C(=O)CN(C)C(=O)[C@H]([C@@H](C)O)NC(=O)[C@H](Cc2ccccc2)NC(=O)[C@H](C(C)C)N(C)C1=O [DP-496] ([NMeβAla][NMeL]I[NMeV]FT[Sar][NMeL][NMeV]D[NMeF][NMeF]A-Piperidide; lactam N-10) | 13 | 23 |  | 
CC(C)C[C@@H]1NC(=O)[C@H](C)NC(=O)C[C@H](C)NC(=O)[C@H](C(C)C)N(C)C(=O)[C@H](CC(C)C)N(C)C(=O)[C@H]([C@@H](C)O)NC(=O)[C@H](Cc2ccc(C(F)(F)F)cc2)NC(=O)[C@H](C)N(C)C(=O)CNC(=O)[C@H](CC(C)C)N(C)C(=O)[C@H](C)N(C)C1=O [DP-829] (cyclo(AL[NMeA][NMeL]G[NMeA][Phe(4-CF3)]T[NMeL][NMeV][β3hA])) | 65 | 21 |  | 
CC(C)C[C@H]1C(=O)N[C@@H](C)C(=O)N(C)[C@@H](Cc2ccccc2)C(=O)N(C)[C@@H](C(C)C)C(=O)N[C@@H](Cc2ccccc2)C(=O)N(C)[C@@H](C)C(=O)N(C)[C@@H](C)C(=O)N[C@H](C(=O)N2CCCCC2)CC(=O)N(C)[C@H](C)C(=O)N[C@@H]([C@@H](C)O)C(=O)N(C)[C@@H](C)C(=O)N1C [DP-474] ([dNMeA]T[NMeA][NMeL]A[NMeF][NMeV]F[NMeA][NMeA]D-Piperidide; lactam N-11) | 129 | 13 |  | 
CC(C)C[C@H]1C(=O)N(C)[C@@H](Cc2ccccc2)C(=O)N[C@H](C(=O)N2CCCCC2)CC(=O)N(C)CC(=O)N[C@@H]([C@@H](C)O)C(=O)N(C)[C@@H](C)C(=O)N[C@@H](COC(C)(C)C)C(=O)N(C)[C@@H](Cc2ccccc2)C(=O)N1C [DP-521] ([Sar]T[NMeA]S(tBu)[NMeF][NMeL][NMeF]D-Piperidide; lactam N-8) | 125 | 44 |  | 
CC[C@H](C)[C@H]1C(=O)N[C@@H](Cc2ccccc2)C(=O)N[C@H](C(=O)N2CCCCC2)CC(=O)N(C)CCC(=O)N(C)[C@@H](C(C)C)C(=O)N[C@@H](Cc2ccccc2)C(=O)N[C@@H](CC(C)C)C(=O)N(C)[C@@H](C)C(=O)N[C@@H]([C@@H](C)O)C(=O)N[C@@H](CC(C)C)C(=O)N(C)[C@@H](CC(C)C)C(=O)NCC(=O)N1C [DP-221] ([NMeβAla][NMeV]FL[NMeA]TL[NMeL]G[NMeI]FD-Piperidide; lactam N-12) | 75 | 31 |  | 
